Measurements from patent US6555529B1, “Remedies for intramedullary diseases” (Toray Industries, Inc., priority 1997, dated 2003).
Marks after values point to notes of the source that are not given here.

How the values were obtained:
[1] = test system: acute promyelocytic leukaemia cell strain KG-1; assay: Suppression of KG-1 cell proliferation (MTT assay); assay type: cell-based; set-up: unit of the concentration uncertain; conditions: 120 hours culture, mean ± SE
Description: (§1) Acute promyelocytic leukaemia cell strain KG-1, T-cell type acute lymphoblastic leukaemia cell strain RPMI-8402, B-cell-type acute lymphoblastic leukaemia cell strain CCRF-SB, chronic myelocytic leukaemia cell strain K562 and myeloblastoma cell strain ML-2 were prepared at concentrations of 2×10^4 or 4×10^4 cells per ml of culture medium. In each case, 0.05 ml quantities were added per well of a 96 well culture plate and culturing carried out at a carbon dioxide concentration of 5% for 24 hours at 37° C. Furthermore, 0.05 ml quantities of culture medium to which Compound 1 had been added were added to the aforesaid culture plate, and culturing carried out under the same conditions for 120 hours. The number of cells when the culturing was completed was calculated by the MTT calorimetric assay and the percentage suppression of tumour cell proliferation in terms of a control group to which no compound had been added was determined.
(§2) As well as Compound 1, there were used as test compounds 1-hydroxyethane-1,1-bisphosphonic acid disodium salt (Compound 6) and (4-chlorophenylthio)methane-1,1-bisphosphonic acid disodium salt (Compound 7). The results are shown in Table 2 as mean values±standard errors.
(§3) Using Dunett multiple comparison method (parametric), the results were assigned the symbol * when significant at a level of significance of p<0.05, and the symbol *** when significant at a level of significance of p<0.001, compared to the control group.

[2] = test system: T-cell type acute lymphoblastic leukaemia cell strain RPMI-8402; assay: Suppression of RPMI-8402 cell proliferation (MTT assay); assay type: cell-based; conditions: 120 hours culture, mean ± SE
Description: as §1, §2, §3

[3] = test system: B-cell-type acute lymphoblastic leukaemia cell strain CCRF-SB; assay: Suppression of CCRF-SB cell proliferation (MTT assay); assay type: cell-based; set-up: unit of the concentration uncertain; conditions: 120 hours culture, mean ± SE
Description: as §1, §2, §3

[4] = test system: chronic myelocytic leukaemia cell strain K562; assay: Suppression of K562 cell proliferation (MTT assay); assay type: cell-based; set-up: unit of the concentration uncertain; conditions: 120 hours culture, mean ± SE
Description: as §1, §2, §3

[5] = test system: myeloblastoma cell strain ML-2; assay: Suppression of ML-2 cell proliferation (MTT assay); assay type: cell-based; set-up: unit of the concentration uncertain; conditions: 120 hours culture, mean ± SE
Description: as §1, §2, §3

[6] = test system: tumour cells; assay: Suppression of leukaemia cell and myeloma cell proliferation (summary over all cell strains); assay type: cell-based; conditions: summary of Table 2
Description: as §1
As well as Compound 1, there were used as test compounds 1-hydroxyethane-1,1-bisphosphonic acid disodium salt (Compound 6) and (4-chlorophenylthio)methane-1,1-bisphosphonic acid disodium salt (Compound 7). The results are shown in Table 2 as mean values±standard errors. […]

[7] = test system: osteomyelitis accompanying adjuvant arthritis (neutrophil infiltration into joints); assay: Suppression of osteomyelitis accompanying rat adjuvant arthritis; assay type: in vivo; conditions: for Osteomyelitis score for the intertarsal and tarsometatarsal joints / Osteomyelitis score for the talocrural joint region: Lewis rats, scored day 22, grades 0-3, mean ± SE; for osteomyelitis suppressing effect (in words): rat adjuvant arthritis, summary of Table 1
Description: 0.1 mg of inactivated dried Mycobacterium butyricum was suspended in 0.1 ml of liquid paraffin, and this was injected into the left hind foot pad of 8-week old female Lewis rats. […] As a control group, the subcutaneous administration of sterile distilled water was carried out. One day after the completion of the administration (day 22) the rats were sacrificed, the skin and muscle removed from the right hind limb and, following decalcification, pathological specimens were prepared. […] Furthermore, Diclofenac (Compound 4) and Indomethacin (Compound 5) were used as existing anti-inflammatory drugs. The results obtained are shown in Table 1 as mean values±standard errors. Using the […] multiple comparison method (parametric), the results were assigned the symbol * when significant at a level of significance of p<0.05, and the symbol ** when significant at a level of significance of p<0.01, compared to the control group in which only sterile distilled water was used.

In the case of `O=P([O-])([O-])C(Sc1ccc(Cl)cc1)P(=O)(O)O.[Na+].[Na+]` [Compound 7, (4-chlorophenylthio)methane-1,1-bisphosphonic acid disodium salt], the “Percentage suppression of KG-1 cell proliferation” value ([1]; 1 (unit uncertain)) is reported as 97.1 ± 0.6*** %, the “Percentage suppression of KG-1 cell proliferation” value ([1]; 10 (unit uncertain)) is reported as −1.1 ± 1.1% and the “Percentage suppression of KG-1 cell proliferation” value ([1]; 100 (unit uncertain)) is reported as 2.2 ± 1.6%. For the same compound, the “Percentage suppression of RPMI8402 cell proliferation” value ([2]; 1 mM) was 87.2 ± 0.6*** %, the “Percentage suppression of RPMI8402 cell proliferation” value ([2]; 10 mM) was −2.5 ± 2.0% and the “Percentage suppression of RPMI8402 cell proliferation” value ([2]; 100 mM) was 7.4 ± 6.3%. The “Percentage suppression of CCRF-SB cell proliferation” value ([3]; 1 (unit uncertain)) was 61.3 ± 1.1*** %, the “Percentage suppression of CCRF-SB cell proliferation” value ([3]; 10 (unit uncertain)) was 0.1 ± 1.9% and the “Percentage suppression of CCRF-SB cell proliferation” value ([3]; 100 (unit uncertain)) was 3.5 ± 2.2%. For the same compound, the “Percentage suppression of K562 cell proliferation” value ([4]; 1 (unit uncertain)) was 97.8 ± 0.3*** %, the “Percentage suppression of K562 cell proliferation” value ([4]; 10 (unit uncertain)) was −1.0 ± 1.3% and the “Percentage suppression of K562 cell proliferation” value ([4]; 100 (unit uncertain)) was −3.1 ± 0.5%. For the same compound, the “Percentage suppression of ML-2 cell proliferation” value ([5]; 1 (unit uncertain)) was 130.4 ± 11.2*** %, the “Percentage suppression of ML-2 cell proliferation” value ([5]; 10 (unit uncertain)) was 7.3 ± 7.3% and the “Percentage suppression of ML-2 cell proliferation” value ([5]; 100 (unit uncertain)) was 42.8 ± 10.1* %. The “proliferation of tumour cells (in words)” value [6] was “suppressed”.
For `CC(O)(P(=O)([O-])[O-])P(=O)(O)O.[Na+].[Na+]` [Compound 6, 1-hydroxyethane-1,1-bisphosphonic acid disodium salt], the “Percentage suppression of KG-1 cell proliferation” value ([1]; 1 (unit uncertain)) was 40.7 ± 1.7*** %, the “Percentage suppression of KG-1 cell proliferation” value ([1]; 10 (unit uncertain)) was 1.6 ± 2.1% and the “Percentage suppression of KG-1 cell proliferation” value ([1]; 100 (unit uncertain)) was 2.9 ± 2.4%. For the same compound, the “Percentage suppression of RPMI8402 cell proliferation” value ([2]; 1 mM) was 28.2 ± 2.0*** %, the “Percentage suppression of RPMI8402 cell proliferation” value ([2]; 10 mM) was −3.4 ± 1.3% and the “Percentage suppression of RPMI8402 cell proliferation” value ([2]; 100 mM) was 2.9 ± 1.5%. The “Percentage suppression of CCRF-SB cell proliferation” value ([3]; 1 (unit uncertain)) was 42.1 ± 0.9*** %, the “Percentage suppression of CCRF-SB cell proliferation” value ([3]; 10 (unit uncertain)) was 2.2 ± 0.8% and the “Percentage suppression of CCRF-SB cell proliferation” value ([3]; 100 (unit uncertain)) was 0.4 ± 1.2%. The “Percentage suppression of K562 cell proliferation” value ([4]; 1 (unit uncertain)) was 44.4 ± 1.3*** %, the “Percentage suppression of K562 cell proliferation” value ([4]; 10 (unit uncertain)) was −2.5 ± 0.3% and the “Percentage suppression of K562 cell proliferation” value ([4]; 100 (unit uncertain)) was 3.2 ± 0.6%. The “Percentage suppression of ML-2 cell proliferation” value ([5]; 1 (unit uncertain)) was 147.2 ± 20.4*** %, the “Percentage suppression of ML-2 cell proliferation” value ([5]; 10 (unit uncertain)) was −20.6 ± 17.2% and the “Percentage suppression of ML-2 cell proliferation” value ([5]; 100 (unit uncertain)) was 16.0 ± 17.2%. For the same compound, the “proliferation of tumour cells (in words)” value [6] was “suppressed”.
`NCCCC(O)(P(=O)(O)O)P(=O)(O)O` [Compound 2, 4-amino-1-hydroxybutane-1,1-bisphosphonic acid] was tested, and the “Osteomyelitis score for the intertarsal and tarsometatarsal joints” value ([7]; 0.31 mg/kg, Table 1-2) was 0.2 ± 0.17**, the “Osteomyelitis score for the talocrural joint region” value ([7]; 0.31 mg/kg, Table 1-2) was 0.0 ± 0.0** and the “osteomyelitis suppressing effect (in words)” value [7] was “suppressed”.
For `O=C(O)Cc1ccccc1Nc1c(Cl)cccc1Cl` [Compound 4, Diclofenac, reference compound], the “Osteomyelitis score for the intertarsal and tarsometatarsal joints” value ([7]; 0.1 mg/kg, Table 1-4) was 1.8 ± 0.2, the “Osteomyelitis score for the talocrural joint region” value ([7]; 0.1 mg/kg, Table 1-4) was 1.2 ± 0.3 and the “osteomyelitis suppressing effect (in words)” value [7] was “weak”.
`O=P(O)(O)C(O)(Cc1cccnc1)P(=O)(O)O` [Compound 3, 2-(3-pyridyl)-1-hydroxyethane-1,1-bisphosphonic acid] was tested, and the “Osteomyelitis score for the intertarsal and tarsometatarsal joints” value ([7]; 0.31 mg/kg, Table 1-3) was 0.0 ± 0.0**, the “Osteomyelitis score for the talocrural joint region” value ([7]; 0.31 mg/kg, Table 1-3) was 0.0 ± 0.0** and the “osteomyelitis suppressing effect (in words)” value [7] was “suppressed”.
In the case of `COc1ccc2c(c1)c(CC(=O)O)c(C)n2C(=O)c1ccc(Cl)cc1` [Compound 5, Indomethacin, reference compound], the “Osteomyelitis score for the intertarsal and tarsometatarsal joints” value ([7]; 0.1 mg/kg, Table 1-5) is reported as 2.5 ± 0.2, the “Osteomyelitis score for the talocrural joint region” value ([7]; 0.1 mg/kg, Table 1-5) is reported as 1.8 ± 0.4 and the “osteomyelitis suppressing effect (in words)” value [7] is reported as “weak”.
